The source of these data is patent US20260217700A1, “KINESIN KIF18A INHIBITOR AND USE THEREOF” (SHANGHAI APEIRON THERAPEUTICS COMPANY LIMITED, priority 2022, published 2026).

Structures are written as SMILES. Read-outs that look alike come from different tables or passages of the source.

Assay [1] concerns the target T1, Human KIF18A (amino acid sequence 1-417) (Homo sapiens, UniProt Q8NI77).
T1 construct: purchased Viva Biotech (Shanghai) Ltd
T1 sequence (Q8NI77 1-417): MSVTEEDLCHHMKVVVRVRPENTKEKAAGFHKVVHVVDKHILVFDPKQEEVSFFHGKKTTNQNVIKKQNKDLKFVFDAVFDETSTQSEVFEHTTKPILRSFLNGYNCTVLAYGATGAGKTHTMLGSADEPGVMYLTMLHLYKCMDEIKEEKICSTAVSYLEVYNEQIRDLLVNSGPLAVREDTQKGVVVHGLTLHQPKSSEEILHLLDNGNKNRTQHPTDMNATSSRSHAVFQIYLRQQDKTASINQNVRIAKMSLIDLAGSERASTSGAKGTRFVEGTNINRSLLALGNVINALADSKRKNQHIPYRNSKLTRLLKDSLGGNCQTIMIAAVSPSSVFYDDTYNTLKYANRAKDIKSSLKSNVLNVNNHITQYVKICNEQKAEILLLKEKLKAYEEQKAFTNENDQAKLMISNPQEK
The assay can be described thus: Enzymatic activity test (ADP-Glo, microtubule-stimulated ATPase). Type of assay: biochemical. The note with it: KIF18A 2.5 nM, ATP 25 μM, microtubules 60 μg/mL, 120 min at ambient temperature, ADP-Glo chemiluminescence; read-out: Enzyme Activity. As for the experimental part: Materials: Human KIF18A (amino acid sequence 1-417) was purchased from Viva Biotech (Shanghai) Ltd.; the ADP-Glo™ protein kinase kit was acquired from Promega, USA; tubulin was sourced from Cytoskeleton, USA; and the 384-well assay plate and Envision multifunctional microplate reader were obtained from PerkinElmer, USA.
Enzymatic Activity Test: Dissolve the compound powder in DMSO to prepare a stock solution of 10 mM. Then perform gradient dilution for the compounds in the microplate to achieve a final concentration of […]. Then, add 2.5 μL each of tubulin, compound, ATP, and KIF18A protein to the microplate in sequence for reaction at ambient temperature for 120 min. The final concentrations in the enzyme reaction are 60 μg/mL for microtubules, 25 μM for ATP, and 2.5 nM for KIF18A protein. After the enzyme reaction, add 10 μL of ADP-GLO reaction reagent to each well and incubate at ambient temperature for 30 min. After that, add […] to each well and incubate at ambient temperature for 30 min in the dark. Finally, perform chemiluminescence detection using the PerkinElmer Envision.
For orientation: ADP-Glo turns the ADP formed in a reaction into a luminescent signal.

In the next assay the test system is OVCAR3 cells. The assay can be described thus: Cell proliferation activity test (CyQUANT Direct). Type of assay: cell-based. The note with it: read-out: OVCAR-3 Cell Viability_IC50_nM. As for the experimental part: Materials and Cells: OVCAR3 cells were purchased from Nanjing Cobioer Biosciences Co., Ltd. RPMI-1640 medium, fetal bovine serum, and the CyQUANT Direct Cell Proliferation Assay kit were purchased from Thermo Fisher Scientific, USA; 96-well cell culture plates were sourced from Corning, USA.
Cell Culture: Culture OVCAR3 cells with RPMI-1640 medium containing 10% fetal bovine serum and incubate them in a 5% CO2 incubator at 37° C. Only cells in the logarithmic growth phase can be used for the test.
Inoculate OVCAR3 cells into a 96-well cell culture plate at 90 μL per well and incubate overnight in a 5% CO2 incubator at 37° C. Dissolve the compound powder in DMSO to prepare a stock solution of 10 mM. Then perform gradient dilution for the compounds in the microplate to achieve a final concentration of 0-10 μM. Add 10 μL of cell culture medium containing compounds to each well to make the final DMSO content 0.2%. Incubate the cell plates in a 5% CO2 incubator at 37° C. for 3 days. Add 100 μL of CyQUANT detection reagent to each well, react at 37° C. for 60 min, and perform fluorescence detection using the PerkinElmer Envision.

The test system of the next assay is HT29 cells. The assay can be described thus: CyQuant cell proliferation activity test. The note with it: read-out: HT-29 Cell Viability_IC50_nM. Type of assay: cell-based. The method, then:
Materials and Cells: HT29 cells were purchased from Nanjing Cobioer Biosciences Co., Ltd.; RPMI-1640 medium, fetal bovine serum, Trypsin-EDTA (0.25%), 96-well plates, and CyQuant reagents were purchased from ThermoFisher (USA); DMSO was purchased from SIGMA (USA).
Cell Culture: Culture HT29 cells with RPMI-1640 containing 10% fetal bovine serum under the condition of 37° C. and 5% CO2. Only cells in the logarithmic growth phase can be used for the test.
Cell Proliferation Activity Test: Use the CyQuant reagent to detect the proliferation inhibitory activity of compounds on HT29 cells. The cell density was adjusted, and 100 μL per well was inoculated into a 96-well plate (HT29 at 2000 cells per well), then incubated overnight at 37° C. and 5% CO2. Add compounds of various target concentrations (initial concentration of 3000 nM, 3-fold dilution, 9 concentration gradients), and make the DMSO content 0.2%. The cell plate was incubated at 37° C. in 5% CO2 for 3 days. Incubate with CyQuant reagent for 1 h, read the plate by Envision, and calculate IC50 using XLFIT.

The mark [2] stands for this setting: Homo sapiens, OVCAR-3, 72 h, OVCAR3 cells, 3 days incubation, CyQUANT fluorescence detection, DMSO 0.2%.
The mark [3] stands for this setting: Homo sapiens, HT-29, 72 h, HT29 at 2000 cells per well, 3 days incubation, CyQuant, initial concentration 3000 nM, DMSO 0.2%.

For the compound `Cc1cc(NC(=O)c2c(N3CCC4(CC3)CC4)cc(NS(=O)(=O)CCO)n3ccnc23)nc(N2CCC(F)(F)CC2)n1` [Example 1, N-(2-(4,4-difluoropiperidin-1-yl)-6-methylpyrimidin-4-yl)-5-(2-hydroxyethylsulfonamido)-7-(6-azaspiro[2.5]octan-6-yl)imidazo[1,2-a]pyridine-8-carboxamide], the IC50 in assay [1] was 112 nM; in the assay on OVCAR3 cells (setting [2]) it was 442 nM; in the assay on HT29 cells (setting [3]), 877 nM.
In the case of `Cc1cc(NC(=O)c2c(N3CCC4(CC3)CC4)cc(NS(=O)(=O)CCO)c3ccoc23)nc(N2CCC(F)(F)CC2)n1` [Example 2, N-(2-(4,4-difluoropiperidin-1-yl)-6-methylpyrimidin-4-yl)-4-(2-hydroxyethylsulfonamido)-6-(6-azaspiro[2.5]octan-6-yl)-benzofuran-7-carboxamide], the IC50 was 29 nM in assay [1], 25 nM in the assay on OVCAR3 cells (setting [2]) and 50 nM in the assay on HT29 cells (setting [3]).
`Cc1cc(NC(=O)c2c(N3CCC4(CC3)CC4)cc(NS(=O)(=O)CCO)c3c2OCC3)nc(N2CCC(F)(F)CC2)n1` [Example 3, N-(2-(4,4-difluoropiperidin-1-yl)-6-methylpyrimidin-4-yl)-4-(2-hydroxyethylsulfonamido)-6-(6-azaspiro[2.5]octan-6-yl)-2,3-dihydrobenzofuran-7-carboxamide]: the IC50 is 27 nM in assay [1], 28 nM in the assay on OVCAR3 cells (setting [2]) and 45 nM with HT29 cells (setting [3]).
For `Cc1cc(NC(=O)c2c(N3CCC4(CC3)CC4)cc(NS(=O)(=O)CCO)c3ccccc23)nc(N2CCC(F)(F)CC2)n1` [Example 4, N-(2-(4,4-difluoropiperidin-1-yl)-6-methylpyrimidin-4-yl)-4-(2-_hydroxyethylsulfonamido)-2-(6-azaspiro[2.5]octan-6-yl)-1-naphthamide], the IC50 amounted to 173 nM in assay [1], 37 nM with OVCAR3 cells and 52 nM in the assay on HT29 cells.
With `Cc1cc(NC(=O)c2c(N3CCC4(CC3)CC4)cc(NS(=O)(=O)CCO)c3ncccc23)nc(N2CCC(F)(F)CC2)n1` [Example 5, N-(2-(4,4-difluoropiperidin-1-yl)-6-methylpyrimidin-4-yl)-8-(2-hydroxyethanesulfonamido)-6-(6-azaspiro[2.5]octan-6-yl)quinoline-5-carboxamide], the IC50 in assay [1] was 134 nM; in the assay with OVCAR3 cells (setting [2]) it was 36 nM; with HT29 cells (setting [3]), 65 nM.
`O=C(Nc1cc2cccnc2c(N2CCC(F)(F)CC2)c1F)c1c(N2CCC3(CC2)CC3)cc(NS(=O)(=O)CCO)c2ccccc12` [Example 6, 2-{6-Azaspiro[2.5]octan-6-yl}-N-[8-(4,4-difluoropiperidin-1-yl)-7-fluoroquinolin-6-yl]-4-(2-hydroxyethanesulfonamido)naphthalene-1-carboxamide]: the IC50 in assay [1] came to 237 nM; with OVCAR3 cells (setting [2]), 67 nM; with HT29 cells (setting [3]), 74 nM.
Turning to `COc1cc(NC(=O)c2c(N3CCC4(CC3)CC4)cc(NS(=O)(=O)CCO)c3ccccc23)nc(N2CCC(F)(F)CC2)n1` [Example 7, 2-{6-Azaspiro[2.5]octan-6-yl}-N-[2-(4,4-difluoropiperidin-1-yl)-6-methoxypyrimidin-4-yl]-4-(2-hydroxyethanesulfonamido)naphthalene-1-carboxamide], the IC50 turned out to be 635 nM in assay [1], 98 nM in the assay on OVCAR3 cells (setting [2]) and 123 nM with HT29 cells (setting [3]).
For `Cc1cc(NC(=O)c2c(N3CCC4(CC3)CC4)cc(NS(=O)(=O)CCO)c3cccnc23)nc(N2CCC(F)(F)CC2)n1` [Example 8, N-(2-(4,4-difluoropiperidin-1-yl)-6-methylpyrimidin-4-yl)-5-((2-hydroxyethyl)sulfonamido)-7-(6-azaspiro[2.5]octan-6-yl)quinoline-8-carboxamide], in that order: 280 nM, 488 nM and over 1000 nM.
The matching figures for `Cc1cc(NC(=O)c2c(N3CCC4(CC3)CC4)cc(NS(=O)(=O)CCO)c3c2CCC3)nc(N2CCC(F)(F)CC2)n1` [Example 9, N-(2-(4,4-difluoropiperidin-1-yl)-6-methylpyrimidin-4-yl)-7-((2-hydroxyethyl)sulfonamido)-5-(6-azaspiro[2.5]oct-6-yl)-2,3-dihydro-1H-indene-4-carboxamide]: 176 nM, 26 nM and 37 nM.
The matching figures for `CC(CO)S(=O)(=O)Nc1cc(N2CCC3(CC2)CC3)c(C(=O)Nc2cc3sc(N)nc3c(N3CCC(F)(F)CC3)c2F)c2ccccc12` (stereo not drawn) [Example 10, N-[2-amino-4-(4,4-difluoropiperidin-1-yl)-5-fluoro-1,3-benzothiazol-6-yl]-2-{6-azaspiro[2.5]octan-6-yl}-4-(1-hydroxypropane-2-sulfonamido)naphthalene-1-carboxamide]: 180 nM, 35 nM and 44 nM.
As to `Cc1cc(NC(=O)c2c(N3CCC4(CC3)CC4)cc(NS(=O)(=O)C(C)(C)CO)c3c2CCC3)nc(N2CCC(F)(F)CC2)n1` [Example 11, N-(2-(4,4-difluoropiperidin-1-yl)-6-methylpyrimidin-4-yl)-7-((2-hydroxy-1,1-dimethylethyl)sulfonamide)-5-(6-azaspiro[2.5]oct-6-yl)-2,3-dihydro-1H-indene-4-carboxamide], the figures for the IC50 (in assay [1]; in the assay with OVCAR3 cells (setting [2]); in the assay on HT29 cells (setting [3])) were 170 nM, 20 nM and 29 nM, respectively.
